In the supplement of paper PMC10307832:

Assays:
[1] = compound: CC1=CC(=C(N1C2=CC=C(C=C2)Cl)C)C(=O)CN3CCCCC3 [IU1-47] + NC(=O)Nc1cc(-c2cccc(F)c2)sc1C(=O)N[C@H]1CCCNC1 [AZD7762] (partner 0.2 µM); experiment: relative viability (nuclei count vs DMSO), 5 days (fraction); higher = more cells survive
Summary of the method: (§1)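 Relative viability was taken as the ratio of nuclei in treated wells to nuclei in vehicle wells. Lung cancer cell lines in 1536-well plates received compounds by pin tool one day after seeding, either one drug alone or a fixed anchor-drug dose plus five library-drug doses (not always all listed) in √10 steps. Nuclei were counted on 4× images after 5 days of treatment, and values are medians of duplicate plates.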

[2] = compound: CC1=CC(=C(N1C2=CC=C(C=C2)Cl)C)C(=O)CN3CCCCC3 [IU1-47] + O=C(CCCCCCC(=O)Nc1ccccc1)NO [Vorinostat] (partner 1 µM); experiment: as above
Summary of the method: as §1

Cell Line | relative viability ([1]; first compound 0.08 µM) | relative viability ([1]; first compound 0.253 µM) | relative viability ([1]; first compound 0.8 µM) | relative viability ([1]; first compound 2.53 µM) | relative viability ([1]; first compound 8 µM) | relative viability ([2]; first compound 0.08 µM) | relative viability ([2]; first compound 0.253 µM) | relative viability ([2]; first compound 0.8 µM) | relative viability ([2]; first compound 2.53 µM) | relative viability ([2]; first compound 8 µM)
201T | 0.696 | 0.592 | 0.633 | 0.504 | 0.78 | 1.08 | 1.03 | 1.07 | 0.356 | 0.915
A-427 | 0.747 | 0.908 | 0.596 | 0.82 | 0.562 | 0.894 | 0.847 | 0.841 | 0.883 | 0.836
ABC-1 | 0.765 | 0.671 | 0.774 |  | 0.729 | 1.32 | 1.08 | 0.987 |  | 1.06
BEN | 0.677 | 0.638 | 0.761 | 0.535 | 0.739 | 0.605 | 0.653 | 0.681 | 0.564 | 0.544
CAL-12T | 0.622 | 0.695 | 0.695 | 0.601 | 0.629 | 0.826 | 0.759 | 0.711 | 0.747 | 0.841
COR-L23 |  |  |  |  |  | 0.383 | 0.514 | 0.439 | 0.466 | 0.404
COR-L 105 |  |  |  |  |  | 1.02 | 1.01 | 0.779 | 0.745 | 0.958
ChaGo-K-1 | 0.934 | 1.01 | 0.91 | 0.91 | 0.954 | 0.835 | 0.766 | 0.806 | 0.623 | 0.717
EKVX | 0.894 | 0.866 | 0.725 |  | 0.756 | 0.951 | 0.632 | 0.846 | 0.573 | 0.631
EMC-BAC-2 | 1.1 | 1.24 | 1.09 | 1.07 | 1.07 | 0.456 | 0.488 | 0.42 | 0.442 | 0.419
EPLC-272H | 0.232 | 0.205 | 0.226 |  | 0.217 | 0.382 | 0.55 | 0.494 | 0.394 | 0.461
H3255 | 1.19 | 1.01 | 1.08 | 0.877 | 0.893 | 0.918 | 0.883 | 1.02 |  | 0.669
HARA | 0.394 |  | 0.359 | 0.176 | 0.273 | 0.421 | 0.679 | 0.646 | 0.575 | 0.479
HCC-15 | 1.15 | 1.5 | 1.4 |  | 1.23 | 0.885 | 0.894 | 0.946 | 0.766 | 0.731
HCC-44 | 1 | 1.07 | 1.04 | 0.959 | 1.04 | 1.16 | 1.09 | 1.11 | 1.13 | 1.09
HCC-78 | 0.606 | 0.546 | 0.638 | 0.654 | 0.609 | 0.557 | 0.432 | 0.463 | 0.397 | 0.438
HCC-366 | 0.281 | 0.357 | 0.355 | 0.267 | 0.236 | 0.298 | 0.283 | 0.378 | 0.453 | 0.342
HCC-827 | 0.174 | 0.213 | 0.227 | 0.202 | 0.197 | 0.966 | 1.08 | 1.02 | 0.879 | 0.558
